Source: paper PMC10267362, “Boron-peptide conjugates with angiopep-2 for boron neutron capture therapy” (Frontiers in Medicine, 2023)

How the values were obtained:
[1] = tested on: HS683 intracranial glioma; test: TUNEL apoptosis assay in mouse tumours after BNCT; format: in vivo; settings: 1 day or 7 days after treatment
Experimental: DNA fragmentation in apoptosis induced by BNCT was assessed using the one-step TUNEL apoptosis assay kit following the manufacturer’s protocol (Abbkine Scientific Co., Ltd., China).
In order to evaluate the ^18F-FDG uptake in tumour tissues under different treatment conditions, SUV data were calculated based on a reference region ([23]). […] Based on the 3D PET image data, we also estimated tumour volume before and after BNCT treatment for each mouse (Figure 4B). […] By contrast, tumour size in the control group kept increasing.
Supplementary Figure 6. In vivo effects of ANG-B based BNCT. (A) Body weight of glioma mouse model after treatment. (B) SUVmax analyses (indicating of FDG uptake) of glioma tumors in PET/CT imaging before and after BNCT treatment. (C) Apoptotic cells in tumor at 1 day or 7days after ANG-B based BNCT treatment as measured by TUNEL assay. Mann–Whitney U test; *p < 0.05.

HS683 cells [2] = test: Clonogenic cell survival assay after BNCT (thermal neutron irradiation) in vitro; format: cell-based, human; settings: 5 mM drug for 12 h, neutron flux 3.0 ± 0.4 × 10^11 n/cm^2 in 2 h, colonies after 2 weeks, mean ± SD, three biological repeats
Experimental: Thermal neutron radiation was given as described previously ([16]). A high-current proton beam (3.5 MeV) generated from a radio frequency quadrupole (RFQ) accelerator at the China Spallation Neutron Source was used to bombard a lithium target and produce thermal neutrons (0.5 eV-10 keV) for BNCT.
HS683 cells (10^6/sample) were prepared in centrifuge tubes (1.5 mL, Eppendorf) and treated with ANG-B, TAT-B, T7-B, or BPA at various concentrations (0.0–5.0 mM) for 12 h. Epithermal neutrons were given with a total neutron flux of 3.0 ± 0.4 × 10^11 n/cm^2 given in 2 h. The drug-containing medium was then washed off and desirable numbers of cells in single-cell suspension were seeded into 6-well plates to grow colonies in 2 weeks. Colonies were fixed in 70% ethanol at room temperature for 10 min, and stained with 0.1% crystal violet. Colonies with more than 50 cells were scored as clonogenic survivors.
BNCT eliminates cancer cells by heavy charged particle rays, where reproductive cell death plays a vital role in the treatment outcome ([17], [18]). Here we employed the clonogenic survival assay to analyze the reproductive cell death of glioma cells after BNCT treatment in vitro. To guarantee the performance of BNCT in vitro, we designed and manufactured a tube-holding device for thermal neutron irradiation of cells (Figure 2A). BNCT with these boron delivery agents were tested on HS683 cells. […] BNCT with 5 mM ANG-B caused 86.5% ± 5.3% of clonogenic cell death. […] Therefore, ANG-B was selected for the following in vivo study.

HS683 cells [3] = test: Boron uptake in cells by ICP-AES; format: cell-based, human; settings: 0–0.8 mM for 12 h, p < 0.05
Experimental: (§1) Cell lines established from human glioma (U87MG, U251, and HS683), melanoma (A375), non-small cell lung cancer (A549), and hepatocellular carcinoma (HepG2) were obtained from the National Infrastructure of Cell Line Resource in China, authenticated, and cultured in DMEM, supplemented with 10% fetal bovine serum (HyClone) and 100 IU/mL penicillin/streptomycin (all Sigma-Aldrich unless otherwise noted). Cells were routinely tested for mycoplasma using the Mycoplasma Test Kit (Cellorlab, China). All cells were maintained in a humidified incubator at 5% CO2 and 37°C after defrosting and cultured in the exponential growth phase before each experiment.
(§2) After treatment with boronated peptides or BPA (HEC Pharm, Dongguan, China), boron concentrations in human cells or mice tissues were measured by inductively coupled plasma atomic emission spectroscopy (abbr., ICP-AES; Leeman’s Prodigy 7) using published methods ([16]).
(§3) An efficient boron delivery agent should enhance boron uptake in cancer cells. Thus, we analyzed boron concentrations on 6 human cancer cell lines derived from glioma (U87MG, U251, and HS683), melanoma (A375), non-small cell lung cancer (A549), or hepatocellular carcinoma (HepG2) after treatment with various concentrations of ANG-B, TAT-B, or T7-B for 12 h. BPA was tested in parallel for comparison.
(§4) Figure 1 Boron concentrations in 6 human cell lines derived from glioma (U87MG, U251, and HS683), melanoma (A375), non-small cell lung cancer (A549), or hepatocellular carcinoma (HepG2). Cells were pre-exposed to 0–0.8 mM of ANG-B, TAT-B, T7-B, or BPA for 12 h. Boron concentrations were then analyzed by ICP-AES in HS683 (A), U251 (B), U87MG (C), A375 (D), HepG2 (E), or A549 cells (F). Mean values with standard errors are shown.

A375 cells = test: Boron uptake in cells by ICP-AES; format: cell-based, human; settings: A375 cells (printed A357), 0–0.8 mM for 12 h, p < 0.05
Experimental: as §1, §2, §3, §4

HepG2 cells = test: Boron uptake in cells by ICP-AES; format: cell-based, human; settings: 0–0.8 mM for 12 h, p < 0.05
Experimental: as §1, §2, §3, §4

[4] = tested on: HS683 intracranial glioma; test: In vivo BNCT in intracranial glioma mouse model, 18F-FDG PET/CT; settings: for SUV (18F-FDG uptake) in tumour tissues after BNCT, compared to control group: PET/CT, p < 0.05
Experimental: The glioma mouse model was established as reported recently ([16]). HS683 cells were transfected with luciferase-expressing vector (Lenti-UTR-Luc-Blank Vector; Promega). BALB/c nude mice were anesthetized by intraperitoneal injection of tribromoethanol (150 mg/kg) and then placed in a stereotaxic instrument. A hole was made in the mouse skull and 5 μL of HS683 cell suspension (2 × 10^7 cells/mL) was injected into the brain using the stereotaxic instrument. The growth state of glioma tumours in mice was monitored by bioluminescent imaging (IVIS 3D Perkin Elmer). Animal experiments were performed according to the protocols approved by the Animal Use Review Board and Ethical Committee of Shenzhen Bay Laboratory (permit no. AFRQS202101).
During BNCT, five mice per group were injected with 2.5 mM/kg of BPA (5% fructose solution) or ANG-B solution through the tail vein. 90 min later, mice were anesthetized with an intraperitoneal injection of tribromoethanol at a dose of 150 mg/kg and then fixed in a mould for BNCT irradiation of the mouse head using a published method ([16]). Mice were treated with 2 kW of neutron flux for 2 h each time and four times for each mouse in 1 week, to achieve a total neutron flux of 12.5 ± 0.5 × 10^11 n/cm^2. Mice were anesthetized with 2% isoflurane at 25°C and imaged with PET/CT (nanoSCAN, Mediso) with 1.5 uCi/g ^18F-FDG at 1 day before or 31 days after BNCT. Image processing and analyses were performed by AMIDE (RRID: SCR_005940), where ROI, SUV values, and tumour volume were determined.
The glioma mouse model was further used in BCNT tests for ANG-B. The body weight of all the used mice was monitored during the whole process, where no obvious health issues with body weight loss were noticed (Supplementary Figure S6A). PET imaging is usually used to evaluate therapeutic response of glioma patients or mouse models ([16], [21], [22]). Therefore, we employed ^18F-FDG-based PET/CT to estimate intracranial tumour volume for each mouse 1 day before and 31 days after BNCT treatments (Figure 4A). An additional lower concentration of ANG-B at 1 mM/kg (i.e., ANG-B low) was included for comparison.

[5] = Boron biodistribution in intracranial glioma mouse model (ICP-AES); format: in vivo
Experimental: The glioma mouse model was established as reported recently ([16]). HS683 cells were transfected with luciferase-expressing vector (Lenti-UTR-Luc-Blank Vector; Promega). BALB/c nude mice were anesthetized by intraperitoneal injection of tribromoethanol (150 mg/kg) and then placed in a stereotaxic instrument. A hole was made in the mouse skull and 5 μL of HS683 cell suspension (2 × 10^7 cells/mL) was injected into the brain using the stereotaxic instrument. The growth state of glioma tumours in mice was monitored by bioluminescent imaging (IVIS 3D Perkin Elmer). Animal experiments were performed according to the protocols approved by the Animal Use Review Board and Ethical Committee of Shenzhen Bay Laboratory (permit no. AFRQS202101). After treatment with boronated peptides or BPA (HEC Pharm, Dongguan, China), boron concentrations in human cells or mice tissues were measured by inductively coupled plasma atomic emission spectroscopy (abbr., ICP-AES; Leeman’s Prodigy 7) using published methods ([16]). Proper microenvironmental components are critical for the treatment response of glioma ([19], [20]). Thus, we constructed an intracranial mouse glioma model based on HS683 cells and a research plan based on this model for testing ANG-B effects (Figure 3A). In order to monitor the intracranial tumour growth, we used luciferase-expressing cells for this mouse model (Supplementary Figure S5A). Boron biodistribution was examined at the time point for thermal neutron irradiation. 2.5 mM/kg of ANG-B or BPA (in 5% fructose solution) was injected into mice, and tissues or organs from the tumour, blood, brain, lung, liver, heart, spleen, and kidney were then collected at indicated time points for measuring boron concentrations (Supplementary Figure S5B). […] At 4 h after drug injection, the T/N ratio of ANG-B was 5.61 ± 1.0 and the T/B ratio was 9.42 ± 2.47.

[6] = melanoma patients; cited from earlier work
Description: Boron delivery agent is one of the critical factors limiting the expansion of BNCT application in cancer treatment. An ideal boron delivery agent should be low toxicity, high tumour uptake, quick blood clearance, T/N ratio > 3, and low accumulation in healthy tissues. Unfortunately, no existing boron delivery agents can fulfil all these requirements. Historically, BPA is the most popular boron delivery agent in clinical BNCT. Cancer cells usually promote cellular amino acid transport and result in increased uptake of BPA, especially in melanoma cells ([27]). A study evaluated the biodistributi ...

U87MG cells = test: Boron uptake in cells by ICP-AES; format: cell-based, human; settings: 0–0.8 mM for 12 h
Experimental: as §1, §2, §3, §4

[7] = 4 h after tail-vein injection of 2.5 mM/kg, intracranial HS683 glioma mice, ICP-AES, three mice per group
[8] = glioma mouse model, 2.5 mM/kg in 5% fructose solution, time not stated

Row | Molecule | apoptotic cells in mouse tumours after BNCT [1] | clonogenic cell death after BNCT (HS683 cells [2]) | boron uptake compared with BPA (HS683 cells [3]) | boron uptake compared with BPA (A375 cells) | boron uptake compared with BPA (HepG2 cells) | SUV (18F-FDG uptake) in tumour tissues after BNCT, compared to control group ([4]; 1 mM/kg (ANG-B low)) | tumour volume at 31 days after BNCT treatment ([4]; 2.5 mM/kg, 18F-FDG PET imaging before and after BNCT) | SUV (18F-FDG uptake) in tumour tissues after BNCT, compared to control group ([4]; 2.5 mM/kg) | glioma-targeting effects and blood clearance compared with BPA ([5]; 2.5 mM/kg tail vein, 1, 2, 4 or 6 h, glioma mouse model) | Tumour/blood (T/B) ratio of boron [5, 7] | Tumour/normal (T/N) tissue ratio of boron [5, 7] | T/N ratio [6] | skin-to-blood ratio [6] | boron uptake compared with boronated peptides (U87MG cells) | T/B ratio of boron [5, 8] | T/N ratio of boron [5, 8]
1 | TFFYGGSRGKRNNFKTEEYC [ANG-B, N-terminal boron-containing derivative of angiopep-2 with 10B-4-carboxyphenylboronic acid at N terminus and cysteine at C terminus] | more apoptotic cells | 86.5% ± 5.3% | significantly more boron uptake than BPA | significantly more boron uptake than BPA | significantly more boron uptake than BPA | significantly decreased SUV | significantly decreased tumour volume | significantly decreased SUV | significantly better | 9.42 ± 2.47 | 5.61 ± 1.0 |  |  |  |  | 
2 | N[C@@H](Cc1ccc([10B](O)O)cc1)C(=O)O [BPA, ^10B-p-boronophenylalanine, reference compound] |  | 73.3% ± 6.0% |  |  |  |  |  | significantly decreased SUV |  |  |  | 3.40 | 1.31 | took up more BPA | approximately 2 | approximately 2
3 | MASMTGGQQMG [T7-B, boron-peptide conjugate used as control] |  | 54.5% ± 1.1% |  |  |  |  |  |  |  |  |  |  |  |  |  | 
